# Tested on: Namalwa (Burkitt's lymphoma)
# Assay: in vitro cytotoxicity assay, Namalwa cells
# Format: cell-based, human
# Conditions: Homo sapiens; free cytotoxic compound
# Text: (§1) Following cell lines were used for the study: KB (cervical carcinoma, ATCC), NCI-H2110 (Non Small Cell Lung Carcinoma, ATCC), Namalwa (Burkitt's lymphoma, ATCC), Ishikawa (endometrial adenocarcinoma, ECACC), EOL-1 (Acute Myeloid Leukemia, ECACC), JEG-3 (choriocarcinoma, ATCC), JHOS-4 (ovarian adenocarcinoma, Riken Bioresource Center), OV-90 (ovarian adenocarcinoma, ATCC), SKOV-6 (ovarian adenocarcinoma, Memorial Sloan Kettering Cancer Center), Igrov-1 (ovarian adenocarcinoma, National Cancer Institute), KB-GRC1-MDR (cervical carcinoma/Pgp positive, gift from Dr. Roninson at the Ordway Research Institute) and T47D (breast epithelial cancer, ATCC). The cells were maintained and plated for the cytotox experiments in media recommended by the manufacturers. Cells were plated in the 96-well flat bottom plates at a seeding density of 800 cells per well (Ishikawa, JEG-3 or SK-OV-6), 1,000 cells per well (KB, Namalwa, EOL-1, OV-90 and Igrov-1) or 2,000 cell per well (NCI H2110, JHOS-4 and T47D). Conjugates or free drug compounds were diluted in RPMI-1640 (Life Technologies) supplemented with heat-inactivated 100 FBS (Life Technologies) and 0.1 mg/ml gentamycin (Life Technologies), and added to the plated cells. To determine specificity of cytotoxic activity of the conjugates an excess of unconjugated antibody was added to a separate set of diluted conjugates (+block samples, IC50 table). The plates were incubated at 37° C., 500 CO2 for either 4 days (JHOS-4 and T47D cells) or 5 days (KB, NCI H2110, Ishikawa, EOL-1, JEG-3, OV-90, SK-OV-6, NC-H441 and Igrov-1 cells). Alamar blue assay (Invitrogen) was used to determine viability of JHOS-4 and T47D cells, and WST-8 assay (Donjindo Molecular Technologies, Inc.) was applied for viability of KB, NCI H2110, Namalwa, Ishikawa, EOL-1, JEG-4, OV-90, SK-OV-6, NCI-H4441 and Igrov-1 cells. The assays were performed in accordance with the manufacturer's protocols. Killing curves and IC50 were generated using a sigmoidal dose-response nonlinear regression curve fit (GraphPad Software Inc.).
row,SMILES,IC50 [nM]
1,COC(=O)CCNC(=O)c1nc(NC(=O)c2cc3cc(NC(=O)CCCOc4cc5c(cc4OC)C(=O)N4c6ccccc6C[C@H]4C=N5)ccc3o2)cn1C [Compound 180],0.3
2,COC(=O)CCNC(=O)c1cc2cc(NC(=O)c3cc(NC(=O)CCCOc4cc5c(cc4OC)C(=O)N4c6ccccc6C[C@H]4C=N5)cn3C)ccc2o1 [Compound 185],0.2
3,COC(=O)CCNC(=O)c1cc2cc(NC(=O)c3nc(NC(=O)CCCOc4cc5c(cc4OC)C(=O)N4c6ccccc6C[C@H]4C=N5)cn3C)ccc2o1 [Compound 188],0.06
4,COc1cc2c(cc1OCCCCNC(=O)c1cc(NC(=O)c3cc(NC(=O)CCC(C)(C)SSC)cn3C)cn1C)N=C[C@@H]1Cc3ccccc3N1C2=O [Compound 192],0.4
5,COC(=O)CCNC(=O)c1cc2cc(NC(=O)c3cc(NC(=O)CCCOc4cc5c(cc4OC)C(=O)N4c6ccccc6C[C@H]4C=N5)cn3CCCNC(=O)OC(C)(C)C)ccc2o1 [Compound 199],> 0.5
6,COc1cc2c(cc1OCCCC(=O)Nc1cccc(C(=O)Nc3cc(C(=O)NCC(C)(C)SSC)n(C)c3)n1)N=C[C@@H]1Cc3ccccc3CN1C2=O [Compound 205],0.1
7,COc1cc2c(cc1OCCCC(=O)Nc1cn(C)c(C(=O)Nc3ccc(-c4cc(C(=O)NCC(C)(C)SSC)n(C)c4)cc3)n1)N=C[C@@H]1Cc3ccccc3CN1C2=O [Compound 206],0.001

# Same assay, conditions: free cytotoxic compound
row,SMILES,IC50 [nM]
1,COc1cc2c(cc1OCc1cccc(CC(=O)Nc3cc(C(=O)Nc4ccc(-c5cc(C(=O)NCC(C)(C)S(C)=S)n(C)c5)cc4)n(C)c3)c1)N=C[C@@H]1Cc3ccccc3N1C2=O (stereo partly drawn) [Compound 55],4
2,COc1cc2c(cc1OCCCC(=O)Nc1nc(C)c(C(=O)Nc3ccc4sc(C(=O)NCC(C)(C)S(C)=S)cc4c3)s1)N=C[C@@H]1Cc3ccccc3N1C2=O (stereo partly drawn) [Compound 81],3
3,COc1cc2c(cc1OCCCC(=O)Nc1cn(C)c(C(=O)Nc3ccc4nc(C(=O)NCC(C)(C)S(C)=S)n(C)c4c3)n1)N=C[C@@H]1Cc3ccccc3N1C2=O (stereo partly drawn) [Compound 99],0.1
4,COc1cc2c(cc1OCCCC(=O)Nc1ccc(C(=O)Nc3cc(C(=O)NCC(C)(C)S(C)=S)n(C)c3)nc1)N=C[C@@H]1Cc3ccccc3N1C2=O (stereo partly drawn) [Compound 117],0.3
5,COc1cc2c(cc1OCCCC(=O)Nc1cn(C)c(C(=O)NCc3cccc(C(=O)NCC(C)(C)S(C)=S)c3)n1)N=C[C@@H]1Cc3ccccc3N1C2=O (stereo partly drawn) [Compound 121],0.6

# Tested on: EOL-1 (Acute Myeloid Leukemia)
# Assay: in vitro cytotoxicity assay, EOL-1 cells
# Format: cell-based
# Conditions: Homo sapiens, EOL1, 120 h; free cytotoxic compound; 5 days
# Text: as §1
row,SMILES,IC50 [nM]
1,COC(=O)CCNC(=O)c1cc2cc(NC(=O)c3nc(NC(=O)CCCOc4cc5c(cc4OC)C(=O)N4c6ccccc6C[C@H]4C=N5)cn3C)ccc2o1 [Compound 188],0.02

# Tested on: KB (cervical carcinoma)
# Assay: in vitro cytotoxicity assay, KB cells
# Format: cell-based, human
# Conditions: Homo sapiens, KB, 120 h; free cytotoxic compound; 5 days
# Text: as §1
row,SMILES,IC50 [nM]
1,COC(=O)CCNC(=O)c1nc(NC(=O)c2cc3cc(NC(=O)CCCOc4cc5c(cc4OC)C(=O)N4c6ccccc6C[C@H]4C=N5)ccc3o2)cn1C [Compound 180],1
2,COC(=O)CCNC(=O)c1cc2cc(NC(=O)c3cc(NC(=O)CCCOc4cc5c(cc4OC)C(=O)N4c6ccccc6C[C@H]4C=N5)cn3C)ccc2o1 [Compound 185],0.2
3,COC(=O)CCNC(=O)c1cc2cc(NC(=O)c3nc(NC(=O)CCCOc4cc5c(cc4OC)C(=O)N4c6ccccc6C[C@H]4C=N5)cn3C)ccc2o1 [Compound 188],0.08
4,COc1cc2c(cc1OCCCCNC(=O)c1cc(NC(=O)c3cc(NC(=O)CCC(C)(C)SSC)cn3C)cn1C)N=C[C@@H]1Cc3ccccc3N1C2=O [Compound 192],0.9
5,COC(=O)CCNC(=O)c1cc2cc(NC(=O)c3cc(NC(=O)CCCOc4cc5c(cc4OC)C(=O)N4c6ccccc6C[C@H]4C=N5)cn3CCCNC(=O)OC(C)(C)C)ccc2o1 [Compound 199],1
6,COc1cc2c(cc1OCCCC(=O)Nc1cccc(C(=O)Nc3cc(C(=O)NCC(C)(C)SSC)n(C)c3)n1)N=C[C@@H]1Cc3ccccc3CN1C2=O [Compound 205],0.4
7,COc1cc2c(cc1OCCCC(=O)Nc1cn(C)c(C(=O)Nc3ccc(-c4cc(C(=O)NCC(C)(C)SSC)n(C)c4)cc3)n1)N=C[C@@H]1Cc3ccccc3CN1C2=O [Compound 206],0.006
8,COC(=O)c1cc2cc(NC(=O)c3cc(NC(=O)NCCOc4cc5c(cc4OC)C(=O)N4c6ccccc6C[C@H]4C=N5)cn3C)ccc2s1 [Compound 214],> 5

# Same assay, conditions: free cytotoxic compound; 5 days
row,SMILES,IC50 [nM]
1,COc1cc2c(cc1OCc1cccc(CC(=O)Nc3cc(C(=O)Nc4ccc(-c5cc(C(=O)NCC(C)(C)S(C)=S)n(C)c5)cc4)n(C)c3)c1)N=C[C@@H]1Cc3ccccc3N1C2=O (stereo partly drawn) [Compound 55],9
2,COc1cc2c(cc1OCCCC(=O)Nc1nc(C)c(C(=O)Nc3ccc4sc(C(=O)NCC(C)(C)S(C)=S)cc4c3)s1)N=C[C@@H]1Cc3ccccc3N1C2=O (stereo partly drawn) [Compound 81],> 5
3,COc1cc2c(cc1OCCCC(=O)Nc1cn(C)c(C(=O)Nc3ccc4nc(C(=O)NCC(C)(C)S(C)=S)n(C)c4c3)n1)N=C[C@@H]1Cc3ccccc3N1C2=O (stereo partly drawn) [Compound 99],0.5
4,COc1cc2c(cc1OCCCC(=O)Nc1ccc(C(=O)Nc3cc(C(=O)NCC(C)(C)S(C)=S)n(C)c3)nc1)N=C[C@@H]1Cc3ccccc3N1C2=O (stereo partly drawn) [Compound 117],0.6
5,COc1cc2c(cc1OCCCC(=O)Nc1cn(C)c(C(=O)NCc3cccc(C(=O)NCC(C)(C)S(C)=S)c3)n1)N=C[C@@H]1Cc3ccccc3N1C2=O (stereo partly drawn) [Compound 121],2

# Tested on: KB-GRC1-MDR (cervical carcinoma/Pgp positive)
# Assay: cells
# Conditions: read-out: IC50 KB-MDR
# Text: Following cell lines were used for the study: KB (cervical carcinoma, ATCC), NCI-H2110 (Non Small Cell Lung Carcinoma, ATCC), Namalwa (Burkitt's lymphoma, ATCC), Ishikawa (endometrial adenocarcinoma, ECACC), EOL-1 (Acute Myeloid Leukemia, ECACC), JEG-3 (choriocarcinoma, ATCC), JHOS-4 (ovarian adenocarcinoma, Riken Bioresource Center), OV-90 (ovarian adenocarcinoma, ATCC), SKOV-6 (ovarian adenocarcinoma, Memorial Sloan Kettering Cancer Center), Igrov-1 (ovarian adenocarcinoma, National Cancer Institute), KB-GRC1-MDR (cervical carcinoma/Pgp positive, gift from Dr. Roninson at the Ordway Research Institute) and T47D (breast epithelial cancer, ATCC). The cells were maintained and plated for the cytotox experiments in media recommended by the manufacturers. Cells were plated in the 96-well flat bottom plates at a seeding density of 800 cells per well (Ishikawa, JEG-3 or SK-OV-6), 1,000 cells per well (KB, Namalwa, EOL-1, OV-90 and Igrov-1) or 2,000 cell per well (NCI H2110, JHOS-4 and T47D). […] To determine specificity of cytotoxic activity of the conjugates an excess of unconjugated antibody was added to a separate set of diluted conjugates (+block samples, IC50 table). The plates were incubated at 37° C., […] for either 4 days (JHOS-4 and T47D cells) or 5 days (KB, NCI H2110, Ishikawa, EOL-1, JEG-3, OV-90, SK-OV-6, NC-H441 and Igrov-1 cells). Alamar blue assay (Invitrogen) was used to determine viability of JHOS-4 and T47D cells, and WST-8 assay (Donjindo Molecular Technologies, Inc.) was applied for viability of KB, NCI H2110, Namalwa, Ishikawa, EOL-1, […], OV-90, SK-OV-6, […] and Igrov-1 cells. The assays were performed in accordance with the manufacturer's protocols. Killing curves and IC50 were generated using a sigmoidal dose-response nonlinear regression curve fit (GraphPad Software Inc.).
row,SMILES,IC50 [nM]
1,COc1cc2c(cc1OCCCC(=O)Nc1cccc(C(=O)Nc3cc(C(=O)NCC(C)(C)SSC)n(C)c3)n1)N=C[C@@H]1Cc3ccccc3CN1C2=O [Compound 205],4
2,COc1cc2c(cc1OCCCC(=O)Nc1cn(C)c(C(=O)Nc3ccc(-c4cc(C(=O)NCC(C)(C)SSC)n(C)c4)cc3)n1)N=C[C@@H]1Cc3ccccc3CN1C2=O [Compound 206],0.1

# Same assay, conditions: read-out: IC50 KB-MDR; free cytotoxic compound
row,SMILES,IC50 [nM]
1,COc1cc2c(cc1OCCCC(=O)Nc1nc(C)c(C(=O)Nc3ccc4sc(C(=O)NCC(C)(C)S(C)=S)cc4c3)s1)N=C[C@@H]1Cc3ccccc3N1C2=O (stereo partly drawn) [Compound 81],> 5
2,COc1cc2c(cc1OCCCC(=O)Nc1ccc(C(=O)Nc3cc(C(=O)NCC(C)(C)S(C)=S)n(C)c3)nc1)N=C[C@@H]1Cc3ccccc3N1C2=O (stereo partly drawn) [Compound 117],> 5
3,COc1cc2c(cc1OCCCC(=O)Nc1cn(C)c(C(=O)NCc3cccc(C(=O)NCC(C)(C)S(C)=S)c3)n1)N=C[C@@H]1Cc3ccccc3N1C2=O (stereo partly drawn) [Compound 121],> 5

# Tested on: Ishikawa (endometrial adenocarcinoma)
# Assay: in vitro cytotoxicity assay, Ishikawa cells
# Format: cell-based
# Conditions: Homo sapiens, Ishikawa, 120 h; free cytotoxic compound; 5 days
# Text: as §1
row,SMILES,IC50 [nM]
1,COc1cc2c(cc1OCCCC(=O)Nc1cccc(C(=O)Nc3cc(C(=O)NCC(C)(C)SSC)n(C)c3)n1)N=C[C@@H]1Cc3ccccc3CN1C2=O [Compound 205],0.3
2,COc1cc2c(cc1OCCCC(=O)Nc1cn(C)c(C(=O)Nc3ccc(-c4cc(C(=O)NCC(C)(C)SSC)n(C)c4)cc3)n1)N=C[C@@H]1Cc3ccccc3CN1C2=O [Compound 206],0.004

# Same assay, conditions: free cytotoxic compound; 5 days
row,SMILES,IC50 [nM]
1,COc1cc2c(cc1OCCCC(=O)Nc1nc(C)c(C(=O)Nc3ccc4sc(C(=O)NCC(C)(C)S(C)=S)cc4c3)s1)N=C[C@@H]1Cc3ccccc3N1C2=O (stereo partly drawn) [Compound 81],> 5
2,COc1cc2c(cc1OCCCC(=O)Nc1cn(C)c(C(=O)Nc3ccc4nc(C(=O)NCC(C)(C)S(C)=S)n(C)c4c3)n1)N=C[C@@H]1Cc3ccccc3N1C2=O (stereo partly drawn) [Compound 99],0.7
3,COc1cc2c(cc1OCCCC(=O)Nc1ccc(C(=O)Nc3cc(C(=O)NCC(C)(C)S(C)=S)n(C)c3)nc1)N=C[C@@H]1Cc3ccccc3N1C2=O (stereo partly drawn) [Compound 117],1
4,COc1cc2c(cc1OCCCC(=O)Nc1cn(C)c(C(=O)NCc3cccc(C(=O)NCC(C)(C)S(C)=S)c3)n1)N=C[C@@H]1Cc3ccccc3N1C2=O (stereo partly drawn) [Compound 121],2

# Tested on: NCI-H2110 (Non Small Cell Lung Carcinoma)
# Assay: in vitro cytotoxicity assay, NCI-H2110 cells
# Format: cell-based
# Conditions: NCI-H2110, 120 h, free cytotoxic compound; 5 days
# Text: as §1
row,SMILES,IC50 [nM]
1,COC(=O)CCNC(=O)c1nc(NC(=O)c2cc3cc(NC(=O)CCCOc4cc5c(cc4OC)C(=O)N4c6ccccc6C[C@H]4C=N5)ccc3o2)cn1C [Compound 180],2
2,COC(=O)CCNC(=O)c1cc2cc(NC(=O)c3cc(NC(=O)CCCOc4cc5c(cc4OC)C(=O)N4c6ccccc6C[C@H]4C=N5)cn3C)ccc2o1 [Compound 185],0.5
3,COC(=O)CCNC(=O)c1cc2cc(NC(=O)c3nc(NC(=O)CCCOc4cc5c(cc4OC)C(=O)N4c6ccccc6C[C@H]4C=N5)cn3C)ccc2o1 [Compound 188],0.5
4,COc1cc2c(cc1OCCCCNC(=O)c1cc(NC(=O)c3cc(NC(=O)CCC(C)(C)SSC)cn3C)cn1C)N=C[C@@H]1Cc3ccccc3N1C2=O [Compound 192],2
5,COC(=O)CCNC(=O)c1cc2cc(NC(=O)c3cc(NC(=O)CCCOc4cc5c(cc4OC)C(=O)N4c6ccccc6C[C@H]4C=N5)cn3CCCNC(=O)OC(C)(C)C)ccc2o1 [Compound 199],5
6,COc1cc2c(cc1OCCCC(=O)Nc1cccc(C(=O)Nc3cc(C(=O)NCC(C)(C)SSC)n(C)c3)n1)N=C[C@@H]1Cc3ccccc3CN1C2=O [Compound 205],0.8
7,COc1cc2c(cc1OCCCC(=O)Nc1cn(C)c(C(=O)Nc3ccc(-c4cc(C(=O)NCC(C)(C)SSC)n(C)c4)cc3)n1)N=C[C@@H]1Cc3ccccc3CN1C2=O [Compound 206],0.01
8,COC(=O)c1cc2cc(NC(=O)c3cc(NC(=O)NCCOc4cc5c(cc4OC)C(=O)N4c6ccccc6C[C@H]4C=N5)cn3C)ccc2s1 [Compound 214],> 5

# Same assay, conditions: free cytotoxic compound; 5 days
row,SMILES,IC50 [nM]
1,COc1cc2c(cc1OCc1cccc(CC(=O)Nc3cc(C(=O)Nc4ccc(-c5cc(C(=O)NCC(C)(C)S(C)=S)n(C)c5)cc4)n(C)c3)c1)N=C[C@@H]1Cc3ccccc3N1C2=O (stereo partly drawn) [Compound 55],2
2,COc1cc2c(cc1OCCCC(=O)Nc1nc(C)c(C(=O)Nc3ccc4sc(C(=O)NCC(C)(C)S(C)=S)cc4c3)s1)N=C[C@@H]1Cc3ccccc3N1C2=O (stereo partly drawn) [Compound 81],> 5
3,COc1cc2c(cc1OCCCC(=O)Nc1cn(C)c(C(=O)Nc3ccc4nc(C(=O)NCC(C)(C)S(C)=S)n(C)c4c3)n1)N=C[C@@H]1Cc3ccccc3N1C2=O (stereo partly drawn) [Compound 99],1
4,COc1cc2c(cc1OCCCC(=O)Nc1ccc(C(=O)Nc3cc(C(=O)NCC(C)(C)S(C)=S)n(C)c3)nc1)N=C[C@@H]1Cc3ccccc3N1C2=O (stereo partly drawn) [Compound 117],2
5,COc1cc2c(cc1OCCCC(=O)Nc1cn(C)c(C(=O)NCc3cccc(C(=O)NCC(C)(C)S(C)=S)c3)n1)N=C[C@@H]1Cc3ccccc3N1C2=O (stereo partly drawn) [Compound 121],2
6,COC(=O)CCNC(=O)c1cc2cc(NC(=O)c3cc(NC(=O)CCCOc4cc5c(cc4OC)C(=O)N4c6ccccc6C[C@H]4C=N5)cn3CCCNC(=O)OC(C)(C)C)ccc2o1 [Compound 199],3
